Assay results published in patent publication US9750698B2, “Controlled release compositions of agents that reduce circulating levels of platelets and methods therefor” (BioVascular, Inc., priority 2008, dated 2017).

Key:
[1] = Repeat-dose dose-escalation study of controlled release anagrelide: pharmacokinetics; assay type: in vivo, human; details: for AUC0-inf / AUC0-t / AUC0-τ / Cmax: dose-normalized to 0.2 mg
Procedure: A placebo-controlled, double-blind repeat-dose, dose-escalation, sequential cohort study was conducted to evaluate the pharmacokinetics and pharmacodynamics of a controlled release composition of anagrelide as described herein in healthy subjects. An objective of the study was to explore the dose-response relationship for effects on platelet counts of a low dose range of a composition of anagrelide as described herein in healthy subjects. Other objectives of the study included determining the time course of effect and recovery of a range of doses of the composition including anagrelide on platelet count, determining the effects of a range of doses of the anagrelide compositions on platelet aggregation (collagen and ADP as agonists), determining the single and repeat dose pharmacokinetics of the anagrelide composition, and exploring the safety and tolerability of the compositions given as single doses and repeatedly for up to 21 days.
Eligible subjects were treated as follows: • Subjects were admitted to the unit on day 1 in the morning after an overnight fast and remain in the unit until 4 hours after morning dosing on day 5. • Subjects received a single dose of controlled release composition including anagrelide (or matching placebo) on day 1 in the morning. • Subjects commenced repeat dosing twice a day with the controlled release anagrelide composition on the morning of day 3 and remained in the unit until 4 hours after morning dose on day 5. • Subjects continued repeat twice a day dosing with the controlled release anagrelide composition as outpatients. Dosing continued until the morning of day 23. • All morning doses were taken after an overnight fast of at least 8 hour. • All evening doses were taken at least 2 hour after food consumption. No food was to be consumed for at least 1 hour after any dose (4 hours for the morning doses on day 1 and day 23). • On day 6-day 21, blood was taken pre-dosing of the controlled release anagrelide composition for full blood count (FBC) and platelet count (every day), trough PK (day 7, day 10, day 13, day 16 and day 19) and clinical chemistry (day 13). • Subjects were readmitted to the unit on the morning of day 22 and remained there until day 25 so that the PK of the final dose of the controlled release composition containing anagrelide on day 23 could be followed for 48 hours. • Subjects returned to the clinic daily from day 26 to day 31 for FBC and platelet counts. • Subjects returned for a follow up visit 14-16 days after the last dose of the controlled release composition containing anagrelide. Study Population:
A controlled release composition of anagrelide as described above in Table 4 of Example 1 (composition 2 fast release with seal coat) was used in unit doses of 100 μg and 300 μg, administered orally.
In this protocol, 4 cohorts of 200 μg, 300 μg, 400 μg and 600 μg doses of the controlled release composition including anagrelide administered twice daily were studied.
Platelet count, collagen-induced platelet aggregation, ADP induced platelet aggregation, template bleeding time, AUC0-t, AUC0-∞, Cmax, Cmin, t1/2, λZ and tmax were determined.
The starting dose of 200 μg (as a single dose on day 1 and then twice a day for 21 days) was chosen as a dose unlikely to cause any clinically significant reduction in platelet counts in healthy subjects. This starting dose was chosen because identification of the lowest dose of the controlled release composition containing anagrelide producing any effect on platelet counts was of interest. In each subsequent cohort the dose was increased by […] twice a day with the objective of identifying the dose range that lowers platelet counts by 30-50%. With daily monitoring of platelet counts, this escalation was determined to allow identification of the effective dose range of the controlled release composition of anagrelide without placing the subjects at significant clinical risk.

[2] = 38 volunteers, single 1 mg dose of immediate release anagrelide (Agrylin); cited from earlier work
cultured megakaryocytes = details: cited from earlier work
PDEIII = details: cited from earlier work
[3] = commercially available instant release formulation; cited from earlier work
[4] = patients with ET or other myeloproliferative diseases; cited from earlier work
[5] = Pre-formulation excipient compatibility by high sensitivity isothermal calorimetry; assay type: physicochemical; details: binary mixture 1:1, isothermal calorimetry, 24 hours, 30-80° C.
Procedure: Pre-formulation studies utilizing binary mixtures of the API with various excipients (ethylcellulose, Eudragit® RS and RL, Aquacoat® ECD30, ammonium oleate and Surelease® E7 1904) were conducted using a high sensitivity calorimeter in isothermal mode. Excipients were compared on their own and as mixtures with/without saturated sodium chloride solution present. In this technique, the heat changes in samples (API alone, excipient alone, API:excipient (1:1 ratio)) were monitored over 24 hours at a temperature range of 30-80° C. […] Improved dosage forms were formed by employing ethylcellulose in the excipient system and a mode of application including organic (ethanol) spray application due to the insolubility of ethylcellulose in water.

## O=C1NC2=Nc3ccc(Cl)c(Cl)c3CN2C1O (centres unmarked) [3-Hydroxy-Anagrelide]
[1]; cohort 1 (0.2 mg), day 1
  Kel: 0.0985 h⁻¹
  t1/2: 7.78 h
  AUC0-inf: 4.6957 ng·h/mL
  AUC0-t: 4.04622 ng·h/mL
  AUC0-τ: 4.17916 ng·h/mL
  Cmax: 0.61542 ng/mL
  Tmax (median): 4.01 h
[1]; cohort 1 (0.2 mg), day 23
  Kel: 0.0608 h⁻¹
  t1/2: 12.69 h
  AUC0-inf: 7.27841 ng·h/mL
  AUC0-τ: 5.66247 ng·h/mL
  Cmax: 0.75569 ng/mL
  Tmax (median): 3.00 h
[1]; cohort 2 (0.4 mg), day 1
  Kel: 0.0641 h⁻¹
  t1/2: 11.64 h
  AUC0-inf: 3.98674 ng·h/mL
  AUC0-t: 3.36645 ng·h/mL
  AUC0-τ: 3.04925 ng·h/mL
  Cmax: 0.35828 ng/mL
  Tmax (median): 3.51 h
[1]; cohort 2 (0.4 mg), day 23
  Kel: 0.0527 h⁻¹
  t1/2: 13.77 h
  AUC0-inf: 6.18331 ng·h/mL
  AUC0-τ: 4.8106 ng·h/mL
  Cmax: 0.5158 ng/mL
  Tmax (median): 3.02 h
[1]; cohort 3 (0.6 mg), day 1
  Kel: 0.0673 h⁻¹
  t1/2: 12.87 h
  AUC0-inf: 4.6058 ng·h/mL
  AUC0-t: 3.93912 ng·h/mL
  AUC0-τ: 3.50858 ng·h/mL
  Cmax: 0.44422 ng/mL
  Tmax (median): 4.00 h
[1]; cohort 4 (0.3 mg), day 1
  Kel: 0.0596 h⁻¹
  t1/2: 15.30 h
  AUC0-inf: 4.46186 ng·h/mL
  AUC0-t: 3.40306 ng·h/mL
  AUC0-τ: 2.99087 ng·h/mL
  Cmax: 0.40142 ng/mL
  Tmax (median): 3.61 h
[1]; cohort 4 (0.3 mg), day 23
  Kel: 0.0492 h⁻¹
  t1/2: 15.13 h
  AUC0-inf: 5.45894 ng·h/mL
  AUC0-τ: 4.28075 ng·h/mL
  Cmax: 0.45837 ng/mL
  Tmax (median): 3.00 h

## O=C1NC2=Nc3ccc(Cl)c(Cl)c3CN2C1O (centres unmarked) [3-hydroxy anagrelide, 6,7-dichloro-3-hydroxy-1,5-dihydro-imidazo[2,1-b]quinazolin-2-one]
[2]
  AUC0-inf ± RSD (%): 18.0 ± 35.6 ng·h/mL
  Cmax ± RSD (%): 5.47 ± 56.9 ng/mL
  Tmax ± RSD (%): 1.28 ± 58.1 h
  t1/2 ± RSD (%): 2.5 ± 28.7 h
Cultured megakaryocytes
  In vitro effects on megakaryocytopoiesis relative to anagrelide: equipotent
PDEIII
  Potency as PDEIII inhibitor relative to anagrelide: 40 times
[3]
  Terminal half-life: 3.9 h
[4]
  Observed half-life: 3.9 h
  Share of all drug-related products in the plasma: about 45%

## Cl.O.O=C1CN2Cc3c(ccc(Cl)c3Cl)N=C2N1 [API, 6,7-dichloro-1,5-dihydroimidazo-[2,1-b]quinazolin-2(3H)-one mono-hydrochloride monohydrate]
[5]
  Compatibility with Aquacoat: not conclusive as to compatibility
  Compatibility with Eudragit (RS and RL): showed evidence of incompatibility
  Compatibility with Surelease: showed evidence of incompatibility
  Compatibility with ammonium oleate: showed evidence of incompatibility
  Compatibility with ethylcellulose: showed evidence of compatibility

## NC1=Nc2ccc(Cl)c(Cl)c2CN1 [RL603, 2-amino-5,6-dichloro-3,4-dihydroquinazoline]
[2]
  AUC0-inf ± RSD (%): 16.0 ± 32.3 ng·h/mL
  Cmax ± RSD (%): 1.36 ± 34.0 ng/mL
  Tmax ± RSD (%): 2.5 ± 58.5 h
  t1/2 ± RSD (%): 7.8 ± 31.1 h
Cultured megakaryocytes
  Activity on TPO-induced stimulation of megakaryocytes / megakaryocytopoiesis: essentially inactive
PDEIII
  Activity against PDE III: essentially inactive
[4]
  Observed half-life: 8.7 h
  Share of all drug-related products in the plasma: about 33%
